This is an account of results in patent publication US20220073536A1 (Rigel Pharmaceuticals, Inc., priority 2003, published 2022).

Bounds are passed on as bounds.

One experiment deals with cultured human mast cells (CHMC). Put plainly: CHMC low cell density IgE activation: tryptase assay. It is filed as cell-based. Conditions: Homo sapiens, Mast cell, low cell density CHMC, IgE activation, tryptase, 3 pt; read-out: LD Tryptase, CHMC, IgE, 3 pt. A digest of the protocol:
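Tryptase release, fluorogenic substrate, 30 min RT. Prior anti-IgE stimulation of CHMC, 30 min, 37 °C, after 1 hr preincubation at 1000–1500 cells/well in MT; unstimulated wells received MT.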
Regarding `CC(C)Nc1nc(Nc2ccc(N3CCN(C)CC3)cc2)ncc1F` [Compound 1204], the IC50 was < 10 µM.

With `CC(C)Nc1nc(Nc2ccc(N3CCN(C)CC3)c(Cl)c2)ncc1F` [Compound 1205], the IC50 was < 10 µM.

As for `Cc1cc(Nc2ncc(F)c(NC(C)C)n2)ccc1N1CCN(C)CC1` [Compound 1206], the IC50 was < 10 µM.

Consider `CN1CCN(c2ccc(Nc3ncc(F)c(NC4CCC4)n3)cc2C(F)(F)F)CC1` [Compound 1207], for which the IC50 is < 10 µM.

`CN1CCN(c2ccc(Nc3ncc(F)c(NC4CCCC4)n3)cc2C(F)(F)F)CC1` [Compound 1208]: the IC50 is < 10 µM.

With `CN1CCN(c2ccc(Nc3ncc(F)c(NC4CCCCC4)n3)cc2C(F)(F)F)CC1` [Compound 1209], the IC50 was < 10 µM.

Regarding `CC(C)Nc1nc(Nc2ccc(N3CCN(C)CC3)c(C(F)(F)F)c2)ncc1F` [Compound 1210], the IC50 is < 10 µM.

With `CN1C(C)(C)CC(Nc2nc(Cl)ncc2F)CC1(C)C` [Compound 1212], the IC50 was > 10 µM.

Consider `CCOC(=O)N1CCC(Nc2nc(Cl)ncc2F)CC1` [Compound 1213], for which the IC50 is > 10 µM.

On to `CC(C)Nc1nc(Nc2cccc(N3CCN(C)CC3)c2)ncc1F` [Compound 1214], for which the IC50 is > 10 µM.

With `CN1CCN(c2ccc(Nc3ncc(F)c(NC(C)(C)C)n3)cc2)CC1` [Compound 1215], the IC50 was > 10 µM.

Regarding `CN1CCN(c2cccc(Nc3ncc(F)c(NC(C)(C)C)n3)c2)CC1` [Compound 1216], the IC50 is > 10 µM.

Regarding `CN1CCN(c2ccc(Nc3ncc(F)c(NC(C)(C)C)n3)cc2Cl)CC1` [Compound 1217], the IC50 was < 10 µM.

Regarding `CN1CCN(c2ccc(Nc3ncc(F)c(NC4CC(C)(C)N(C)C(C)(C)C4)n3)cc2)CC1` [Compound 1219], the IC50 is > 10 µM.

For `CN1CCN(c2cccc(Nc3ncc(F)c(NC4CC(C)(C)N(C)C(C)(C)C4)n3)c2)CC1` [Compound 1221], the IC50 was > 10 µM.

As for `CN1CCN(c2ccc(Nc3ncc(F)c(NC4CC(C)(C)N(C)C(C)(C)C4)n3)cc2Cl)CC1` [Compound 1222], the IC50 is > 10 µM.

For `Cc1cc(Nc2ncc(F)c(NC3CC(C)(C)N(C)C(C)(C)C3)n2)ccc1N1CCN(C)CC1` [Compound 1223], the IC50 was < 10 µM.

As for `CN1CCN(c2ccc(Nc3ncc(F)c(NC4CC(C)(C)N(C)C(C)(C)C4)n3)cc2C(F)(F)F)CC1` [Compound 1224], the IC50 was > 10 µM.

As to `CCOC(=O)N1CCC(Nc2nc(Nc3ccc(N4CCN(C)CC4)cc3)ncc2F)CC1` [Compound 1225], the IC50 is < 10 µM.

In the case of `CCOC(=O)N1CCC(Nc2nc(Nc3cccc(N4CCN(C)CC4)c3)ncc2F)CC1` [Compound 1226], the IC50 was < 10 µM.

With `CCOC(=O)N1CCC(Nc2nc(Nc3ccc(N4CCN(C)CC4)c(Cl)c3)ncc2F)CC1` [Compound 1227], the IC50 is < 10 µM.

Consider `CCOC(=O)N1CCC(Nc2nc(Nc3ccc(N4CCN(C)CC4)c(C)c3)ncc2F)CC1` [Compound 1228], for which the IC50 was < 10 µM.

As to `CCOC(=O)N1CCC(Nc2nc(Nc3ccc(N4CCN(C)CC4)c(C(F)(F)F)c3)ncc2F)CC1` [Compound 1229], the IC50 was < 10 µM.

With `CCN1CCN(c2ccc(Nc3ncc(F)c(NC4CCC4)n3)cn2)CC1` [Compound 1230], the IC50 is < 10 µM.

The same experiment, now with this note: Homo sapiens, Mast cell, low cell density CHMC, IgE activation, tryptase, 8 pt; read-out: LD Tryptase, CHMC, IgE, 8 pt.
As to `Cc1cc(Nc2ncc(F)c(NC(C)C)n2)ccc1N1CCN(C)CC1` [Compound 1206], the IC50 was > 10 µM.

`Cc1cc(Nc2ncc(F)c(NC(C)(C)C)n2)ccc1N1CCN(C)CC1` [Compound 1218]: the IC50 was < 10 µM.

As to `Cc1cc(Nc2ncc(F)c(NC3CCC3)n2)ccc1N1CCN(C)CC1` [Compound 1220], the IC50 is < 10 µM.

Still in this experiment, the particulars now being: low cell density CHMC, IgE activation, tryptase, 3 pt; read-out: LD Tryptase, CHMC, IgE, 3 pt.
Turning to `Cc1cc(Nc2ncc(F)c(Nc3ccc4c(n3)NCCO4)n2)ccc1N1CCN(C)CC1` [Compound 1203, N4-(3,4-Dihydro-2H,4H-5-pyrid[1,4]oxazin-6-yl)-5-fluoro-N2-[3-methyl-4-(4-methylpiperazino)phenyl]-2,4-pyrimidinediamine], the IC50 was < 10 µM.

In the case of `CN1CCN(c2ccc(Nc3ncc(F)c(Nc4cc(C5CC5)n[nH]4)n3)cc2C(F)(F)F)CC1` [Compound 1211], the IC50 is < 10 µM.

Staying with this experiment, now noted: low cell density CHMC, IgE activation, tryptase, 8 pt; read-out: LD Tryptase, CHMC, IgE, 8 pt.
Turning to `Cc1cc(Nc2ncc(F)c(Nc3ccc4c(n3)NCCO4)n2)ccc1N1CCN(C)CC1` [Compound 1203, N4-(3,4-Dihydro-2H,4H-5-pyrid[1,4]oxazin-6-yl)-5-fluoro-N2-[3-methyl-4-(4-methylpiperazino)phenyl]-2,4-pyrimidinediamine], the IC50 is < 10 µM.
